Holding throughout (test): DTP human tumour cell line panel, 48 h
The subject of experiment [1] is PC-3.
In experiment [2] the test system is SNB-19.
In experiment [3] the test system is T47D.
The test system of experiment [4] is BT-549.
For experiment [5], the system named is SK-OV-3.
Experiment [6] deals with CAKI-1.
Experiment [7] relates to Malme-3M.
The test system of experiment [8] is LOX IMVI.
The subject of experiment [9] is HL-60.
The subject of experiment [10] is SF-295.
The subject of experiment [11] is IGROV-1.
The test system of experiment [12] is NCI-H23.
For experiment [13], the system named is HCT-15.
Experiment [14] has as its system MDA-MB-231.
Experiment [15] has as its system DU-145.
The test system of experiment [16] is HCC 2998.
The test system of experiment [17] is M14.
In experiment [18] the test system is SF-539.
Experiment [19] deals with Hs-578T.

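Five compound concentrations were applied to cells in 96-well plates for 48 hours; endpoints were derived by simple linear interpolation of the resulting dose-response curve. GI50 is the concentration that inhibits growth by half.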 The source made the active and inactive calls. No stated cut-off is given here; in the data, active = GI50 up to about 1.1 µM and inactive = higher. Where only a bound is given, the exact number is not on record here.

For orientation: GI50 means the concentration that inhibits growth by half. On to `CC(=O)OC12OC(C)(C3C(=O)N(c4ccccc4)C(=O)C31)N(c1ccccc1)C2=O` (configuration not stated), for which the GI50 in experiment [1] is 69.3 µM (inactive); in [2] it was > 100 µM (inactive); in experiment [3] it was > 100 µM (inactive); in [4], > 100 µM (inactive); in experiment [5], > 100 µM (inactive); in experiment [6] it was > 100 µM (inactive). Moreover, the GI50 in [7], in [8], in experiment [9], in [10], in [11] and in experiment [12] was > 100 µM (inactive) in each case. Also, the GI50 was over 100 µM in experiment [13]; > 100 µM (inactive) in [14]; > 100 µM (inactive) in experiment [15]; 51.6 µM (inactive) in [16]; > 100 µM (inactive) in [17]; > 100 µM (inactive) in experiment [18]. The GI50 in experiment [19] is > 100 µM (inactive).

For `Cc1nc2c(nc1C)-c1c(c3c(n1Cc1ccccc1)C(=O)CCC3)C(=O)C2=O`, the GI50 in experiment [1] was 5.27 µM (inactive); in experiment [2], 7.96 µM (inactive); in [3], 4.06 µM (inactive); in [4], 2.86 µM (inactive); in [5], 18.9 µM (inactive); in [6], 2.15 µM (inactive). For the same compound, the GI50 was 3.35 µM (inactive) in experiment [7]; 3.14 µM (inactive) in experiment [8]; 3.09 µM (inactive) in experiment [9]; 13.7 µM (inactive) in [10]; 2.58 µM (inactive) in [11]; 3.69 µM (inactive) in experiment [12]. Besides, the GI50 in experiment [13] is 3.15 µM; in experiment [14] it was 3.61 µM (inactive); in [15], 5.08 µM (inactive); in experiment [16], 2.86 µM (inactive); in experiment [17], 4.42 µM (inactive); in [18] it was 2.33 µM (inactive). The GI50 in experiment [19] was 4.2 µM (inactive).

As to `Cc1nc(C)c(N2CCN(CN)CC2)c(O)n1`, the GI50 is > 100 µM (inactive) in [1]; > 100 µM (inactive) in experiment [2]; > 100 µM (inactive) in experiment [3]; > 100 µM (inactive) in experiment [4]; > 100 µM (inactive) in [5]; 8.15 µM (inactive) in experiment [6]. For the same compound, the GI50 in experiment [7], in experiment [8], in experiment [9], in experiment [10], in experiment [11] and in [12] was > 100 µM (inactive) in each case. The GI50 in [13] is over 100 µM; in [14] it was > 100 µM (inactive); in experiment [15], > 100 µM (inactive); in experiment [16] it was > 100 µM (inactive); in experiment [17], > 100 µM (inactive); in experiment [18], > 100 µM (inactive). Also, the GI50 in experiment [19] was > 100 µM (inactive).

Turning to `OCC1OC(c2scc3c(=S)[nH]cnc23)C(O)C1O` (configuration not stated), the GI50 is 2.53 µM (inactive) in experiment [1]; 72.3 µM (inactive) in [2]; 0.82 µM (active) in experiment [3]; 27.5 µM (inactive) in experiment [4]; 2.54 µM (inactive) in experiment [5]; 6.59 µM (inactive) in experiment [6]. Further, the GI50 in experiment [7] is 15.8 µM (inactive); in experiment [8], 2.86 µM (inactive); in experiment [9], 3.63 µM (inactive); in [10], 29 µM (inactive); in experiment [11], 9.62 µM (inactive); in experiment [12], 21 µM (inactive). For the same compound, the GI50 was 4.1 µM in [13]; 4.61 µM (inactive) in [14]; 0.859 µM (active) in [15]; 7.03 µM (inactive) in experiment [16]; 6.53 µM (inactive) in [17]; 8.81 µM (inactive) in experiment [18]. In addition, the GI50 in [19] was 1.77 µM (inactive).

Consider `O=C1CCCCC1C(O)(C(F)(F)F)C(F)(F)Cl` (configuration not stated), for which the GI50 in [1], in [2], in experiment [3], in experiment [4], in experiment [5] and in experiment [6] was > 10 µM (inactive) each time. The GI50 in experiment [7], in experiment [8], in experiment [9], in experiment [10], in experiment [11] and in experiment [12] was > 10 µM (inactive) in each case. The GI50 in experiment [13] is over 10 µM; in [14], > 10 µM (inactive); in experiment [15] it was > 10 µM (inactive); in experiment [16] it was > 10 µM (inactive); in experiment [17] it was > 10 µM (inactive); in experiment [18], > 10 µM (inactive). In addition, the GI50 in [19] is > 10 µM (inactive).

With `C=C1C(OC2O[C@@H]3O[C@@]4(C)CC[C@H]5[C@H](C)CC[C@@H](C2=C)[C@@]35O4)O[C@@H]2O[C@@]3(C)CC[C@H]4[C@H](C)CC[C@@H]1[C@@]24O3` (some centres not stated), the GI50 in experiment [1], in experiment [2], in [3], in [4], in experiment [5] and in experiment [6] was > 50 µM (inactive) in each case. For the same compound, the GI50 in experiment [7], in [8], in [9], in experiment [10], in experiment [11] and in experiment [12] was > 50 µM (inactive) in each case. For the same compound, the concentration for 50% growth inhibition (GI50) in experiment [13] is over 50 µM; in experiment [14], > 50 µM (inactive); in experiment [15], > 50 µM (inactive); in experiment [16], > 50 µM (inactive); in experiment [17] it was > 50 µM (inactive); in [18], > 50 µM (inactive). The GI50 in experiment [19] was > 50 µM (inactive).

`COC(=O)C1CC23C4=C(CCC41)CCC1CN4CC(C)C(CC(OC(C)=O)C12COC(C)=O)C43O` (configuration not stated): the GI50 in experiment [1], in experiment [2], in [3], in [4], in [5] and in experiment [6] was > 100 µM (inactive) in each case. In addition, the GI50 in [7], in experiment [8], in experiment [9], in [10], in experiment [11] and in experiment [12] was > 100 µM (inactive) each time. The GI50 is over 100 µM in [13]; > 100 µM (inactive) in experiment [14]; > 100 µM (inactive) in experiment [15]; > 100 µM (inactive) in experiment [16]; > 100 µM (inactive) in experiment [17]; > 100 µM (inactive) in experiment [18]. Moreover, in experiment [19], the GI50 is > 100 µM (inactive).

Take `CCC1C(=O)OCc2c1cc1n(c2=O)Cc2cc3ccccc3nc2-1` (configuration not stated): the GI50 in [1] is 15.4 µM (inactive); in [2], 5.13 µM (inactive); in experiment [3] it was 4.38 µM (inactive); in experiment [4], 4.38 µM (inactive); in [5], 43.6 µM (inactive); in [6] it was 2.17 µM (inactive). Further, the GI50 in experiment [7] is 60.3 µM (inactive); in experiment [8], 3.78 µM (inactive); in experiment [9] it was 1.88 µM (inactive); in experiment [10], 2.38 µM (inactive); in [11], 17.6 µM (inactive); in experiment [12], 2.84 µM (inactive). In addition, the 50% growth inhibitory concentration (GI50) was 43.4 µM in experiment [13]; > 100 µM (inactive) in experiment [14]; 2.98 µM (inactive) in experiment [15]; 25.9 µM (inactive) in experiment [16]; 3.38 µM (inactive) in experiment [17]; 1.73 µM (inactive) in [18]. The GI50 in [19] is > 54.3 µM (inactive).
